Results on two compounds are retold here after US20190083459A1, “PHARMACEUTICAL COMPOSITION AND USE THEREOF” (WATERSTONE PHARMACEUTICALS(WUHAN) CO., LTD., priority 2016, published 2019).

Data set [1] has as its system cytochrome p450. The following applies: 14C as a marker; cited from earlier work.
Data set [2] relates to NASH-modeled golden hamsters. The data set can be described thus: NASH-modeled golden hamster (method as Example 4, changed doses). The class given is in vivo. To be noted: obeticholic acid 5 mg/kg. The procedure:
The experimental method is referred to the Example 4, except for addition of Ezetimibe group (0.3 mg/kg), dosage change to 5 mg/kg obeticholic acid for the obeticholic acid group, as well as dosage change to 5 mg/kg obeticholic acid and 0.3 mg/kg Ezetimibe for the obeticholic acid+Ezetimibe group. Specifically, a normal group (A), a model group (B), an obeticholic acid group (C), an obeticholic acid+Ezetimibe group (D) and an Ezetimibe group (E) are included in this example.
Liver tissue samples from individual golden hamsters after treatment were subjected to paraffin-sectioning, with results shown in FIG. 3.

Data set [3] concerns NAFLD-modeled golden hamsters. Description: Simple high-fat diet-induced NAFLD-modeled golden hamster. The class given is in vivo. To be noted: obeticholic acid 1 mg/kg, Ezetimibe 1 mg/kg, x ± s; for ALP / ALT / AST / HDL-C / LDL-C / TC / TG: plasma. The source says: Obeticholic acid and Ezetimibe each are formulated with 10% Kolliphor HS 15 (BASF, Lot. No. 21466288K0) to a desired concentration.
78 specific pathogen free (SPF) male golden hamsters were provided, each with a body weight (BW) around 70 to 90 g, and commercially available from Beijing Vital River Laboratory Animal Technology Co., Ltd. Animal permit number is SCXK (Jing) 2012-0001.
10 golden hamsters were fed with a base diet as a normal group, while 68 golden hamsters were fed with a high-fat diet formulated with 0.3% cholesterol, 12.5% palm oil and 87.2% base diet upon purchased. All of them had free access to water, and kept in a same light rhythm (day time/night time: 10 h/14 h). After 3 weeks of feed, the golden hamsters were fasted for 14 hours, with free access to water, and then sampled for blood in a volume of 0.8 mL from posterior orbital venous plexus the next day. The blood samples added with sodium heparin for anticoagulation were centrifuged at 5000 r·min^−1 for 10 minutes, and 300 μL of supernatant for each sample was transferred into an assay cup (in volume of microliter grade) of the Sysmex CHEX-180 automatic biochemical analyzer for determination of levels of TC, TG, LDL-C, HDL-C and ALT, with results for screening of the hamsters.
6 out of 10 golden hamsters fed with the base diet were selected as a normal group, while 30 out of 68 golden hamsters fed with the high-fat diet were grouped into 3 experimental groups randomly (i.e. 10 hamsters for each group), respectively named model group, obeticholic acid group (1 mg/kg) and obeticholic acid (1 mg/kg)+Ezetimibe (1 mg/kg) group. From the first administration at PM 4:00 of the day after grouping, the 3 experimental groups were started to be each administered in a dosage of 10 mL·kg^−1, where the model group was administered with 10% Kolliphor in an equal volume. During administration, the normal group was still fed with the base diet, and the 3 experimental groups were fed with the high-fat diet. At 2 weeks of administration, all the golden hamsters were fasted but accessible to water overnight, and anesthetized with ethyl ether on the morning of the next day for collection of blood samples (in a volume of 0.8 mL) from the posterior orbital venous plexus. The blood samples added with sodium heparin for anticoagulation were centrifuged at 5000 r·min^−1 for 10 minutes, and 300 μL of plasma for each sample was transferred into the Sysmex CHEX-180 automatic biochemical analyzer for determination of levels of TC, TG, LDL-C, HDL-C, ALT, AST and ALP. At 4 weeks of administration, plasma of each hamster was collected for determination of levels of TC, TG LDL-C, HDL-C, ALT, AST and ALP. Afterwards, the hamsters were anesthetized with ethyl ether deeply, followed by weighting and laparotomy by an abdominal median incision for observation of size, color and texture of liver. After photographed, the liver was taken out, washed with saline and dried with filter paper, and weighted for calculation of liver index. Subsequently, left lobe of liver was cut out quickly and placed into 10% of neutral buffered formalin for immobilization, followed by preparation of paraffin sections (with HE staining) for observation of change of liver tissue pathology.
The results are represented in x±s, and comparison among groups is performed by t-test.

The conditions of data set [4]: patients in an obeticholic acid treatment group; cited from earlier work.
Where [5] appears, read: after 4 weeks of administration.
The mark [6] stands for this setting: after 2 weeks of administration.

Take `O=C1[C@H](CC[C@H](O)c2ccc(F)cc2)[C@@H](c2ccc(O)cc2)N1c1ccc(F)cc1` [Ezetimibe]: the “metabolism by a primary drug metabolic enzyme (cytochrome p450)” value in data set [1] is recorded as “barely metabolized”. Further, in data set [2] (Ezetimibe 0.3 mg/kg), the ALP level result is “reduces ALP level slightly”; the “fat content in liver cells (pathological sections of liver tissues, FIG. 3)” value is given as “not reducing fat content in liver significantly”; the “infiltration and aggregation of inflammatory cells (pathological sections of liver tissues, FIG. 3)” value was “ameliorating”; the “level of LDL in plasma” value is “reduces levels of triglyceride, cholesterol, LDL, liver function enzymes in plasma significantly”. Also, in data set [2] (Ezetimibe 0.3 mg/kg), the “level of cholesterol in plasma” value is reported as “reduces levels of triglyceride, cholesterol, LDL, liver function enzymes in plasma significantly”; the “level of triglyceride in plasma” value is “reduces levels of triglyceride, cholesterol, LDL, liver function enzymes in plasma significantly”; the “levels of liver function enzymes (alanine aminotransferase and aspartate aminotransferase) in plasma” value was “reduces levels of triglyceride, cholesterol, LDL, liver function enzymes in plasma significantly”.

Consider `CC[C@H]1[C@@H](O)[C@@H]2[C@H](CC[C@]3(C)[C@@H]([C@H](C)CCC(=O)O)CC[C@@H]23)[C@@]2(C)CC[C@@H](O)C[C@@H]12` [Obeticholic acid, obeticholic acid], for which the “blocking the progression of liver fibrosis (pathological sections of liver tissues)” value in data set [2] is given as “no effect”. Further, the “infiltration and aggregation of inflammatory cells (pathological sections of liver tissues, FIG. 3)” value in data set [2] (Ezetimibe 0.3 mg/kg) was “no effect”. In data set [3] (setting [5]), the “liver index (%)” value is 5.15 ± 0.33%, the ALP was found to be 196.30 ± 18.91 U · L^−1, the ALT stood at 165.20 ± 44.90 U · L^−1 and the AST came to 80.80 ± 13.13 U · L^−1. In data set [3] (setting [5]), the HDL-C worked out at 3.51 ± 0.71 mmol/L, the LDL-C is 16.04 ± 13.52 mmol/L, the TC was 22.89 ± 5.91 mmol/L and the TG stood at 2.07 ± 0.97 mmol/L. Besides, in data set [3] (setting [6]), the ALP turned out to be 190.20 ± 26.30 U · L^−1, the ALT is 120.50 ± 41.78^ U · L^−1, the AST turned out to be 59.20 ± 14.01 U · L^−1 and the HDL-C was 2.70 ± 0.37 mmol/L. In addition, in data set [3] (setting [6]), the LDL-C was 7.07 ± 3.22 mmol/L, the TC was 14.32 ± 3.15^ mmol · L^−1 and the TG was determined as 2.20 ± 0.52 mmol/L. Besides, in data set [4], the “level of high density lipoprotein compared to a placebo control” value is “lower”, the “level of low density lipoprotein compared to a placebo control” value is recorded as “higher” and the “level of total cholesterol compared to a placebo control” value is “higher”.
